# From the Kinase Knowledgebase extract (Sharma et al. 2016)
# Biological target: PIK3CA (human) (UniProt P42336)
# Assay: Assessment of PIK3CA Kinase Activity
# PIK3CA (human), sequence (P42336 whole entry, looked up): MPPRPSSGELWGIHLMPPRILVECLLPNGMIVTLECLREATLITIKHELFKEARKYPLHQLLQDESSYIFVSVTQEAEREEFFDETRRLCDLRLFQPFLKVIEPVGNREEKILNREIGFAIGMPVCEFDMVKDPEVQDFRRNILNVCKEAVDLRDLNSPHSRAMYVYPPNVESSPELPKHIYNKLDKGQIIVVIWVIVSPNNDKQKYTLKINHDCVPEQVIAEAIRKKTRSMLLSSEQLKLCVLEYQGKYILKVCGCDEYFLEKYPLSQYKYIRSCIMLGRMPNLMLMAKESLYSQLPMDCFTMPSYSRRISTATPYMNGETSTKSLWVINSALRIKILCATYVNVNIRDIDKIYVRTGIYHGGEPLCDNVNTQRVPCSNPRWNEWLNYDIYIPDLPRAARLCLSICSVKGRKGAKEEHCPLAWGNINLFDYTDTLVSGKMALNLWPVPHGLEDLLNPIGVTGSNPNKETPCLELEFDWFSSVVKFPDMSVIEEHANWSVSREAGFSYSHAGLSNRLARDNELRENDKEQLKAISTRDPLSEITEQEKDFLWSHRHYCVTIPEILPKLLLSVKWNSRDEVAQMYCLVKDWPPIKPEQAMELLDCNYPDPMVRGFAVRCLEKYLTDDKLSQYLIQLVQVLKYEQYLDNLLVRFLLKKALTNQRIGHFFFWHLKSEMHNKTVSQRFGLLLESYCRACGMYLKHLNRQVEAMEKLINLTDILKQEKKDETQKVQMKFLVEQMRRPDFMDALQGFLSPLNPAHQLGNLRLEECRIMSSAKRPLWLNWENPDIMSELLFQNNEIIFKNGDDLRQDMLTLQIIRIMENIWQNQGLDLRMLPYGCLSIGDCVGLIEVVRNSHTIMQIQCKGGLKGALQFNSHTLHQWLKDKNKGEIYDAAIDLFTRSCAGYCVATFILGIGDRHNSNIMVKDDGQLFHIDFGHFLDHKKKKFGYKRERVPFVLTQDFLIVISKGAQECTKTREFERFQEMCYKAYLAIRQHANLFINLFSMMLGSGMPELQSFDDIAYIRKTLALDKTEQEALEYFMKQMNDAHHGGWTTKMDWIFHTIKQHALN
row,IC50 [nM],Structure (SMILES)
1,≤ 100,Cc1cc(-c2cnc3sc(N)nc3c2)cc2c1OCCN(c1nc(CNC(C)(C)C)nc(C)c1C(C)C)C2
2,≤ 100,Cc1cc(-c2cnc3sc(N)nc3c2)cc2c1OCCN(c1nc(N)nc(C)c1C(C)C)C2
3,≤ 100,Cc1cc(-c2cnc3sc(N)nc3c2)cc2c1OCCN(c1ncnc3c1CC[C@H](C)C3)C2
4,≤ 100,Cc1cc(-c2cnc(Cl)c(NS(=O)(=O)C(F)(F)F)c2)cc2c1OCCN(c1nc(N)nc(C)c1C(C)C)C2
5,≤ 100,CCc1nc(CN(C)C)nc(N2CCOc3c(C)cc(-c4cnc5sc(N)nc5c4)cc3C2)c1CC
6,≤ 100,Cc1cc(-c2cnc3sc(N)nc3c2)cc2c1OCCN(c1nc(CF)nc(C)c1C(C)C)C2
7,≤ 100,Cc1cc(-c2nnc(N)s2)cc2c1OCCN(c1ncncc1C(C)C)C2
8,≤ 100,Cc1cc(-c2cnc3sc(N)nc3c2)cc2c1OCCN(c1nc(C3CC3)nc(C)c1C(C)C)C2
9,≤ 100,COc1ccc(-c2cc(C)c3c(c2)CN(c2nc(N)nc(C)c2C(C)C)CCO3)cn1
10,≤ 100,COc1cncc(-c2cc(C)c3c(c2)CN(c2nc(N)nc(C)c2C(C)C)CCO3)c1
11,≤ 100,Cc1cc(-c2ccc3c(c2)OCO3)cc2c1OCCN(c1nc(N)nc(C)c1C(C)C)C2
12,≤ 100,C=CCc1c(C)nc(N)nc1N1CCOc2c(C)cc(-c3cnc4sc(N)nc4c3)cc2C1
13,≤ 100,Cc1cc(-c2cnc3sc(N)nc3c2)cc2c1OCCN(c1nc(S(C)(=O)=O)nc(C)c1C(C)C)C2
14,≤ 100,CCN(CCF)Cc1nc(C)c(C(C)C)c(N2CCOc3c(C)cc(-c4cnc5sc(N)nc5c4)cc3C2)n1
15,100 to 500,Cc1cc(-c2cnc3sc(N)nc3c2)cc2c1OCCN(c1ncccc1C(N)=O)C2
16,≤ 100,Cc1cc(-c2cnc3sc(N)nc3c2)cc2c1OCCN(c1ncnc(Cl)c1C(C)C)C2
17,100 to 500,Cc1ncc(C)c(N2CCOc3c(C)cc(-c4nnc(N)s4)cc3C2)n1
18,≤ 100,Cc1cc(-c2cnc(Cl)c(NS(C)(=O)=O)c2)cc2c1OCCN(c1nc(N)nc(C)c1C(C)C)C2
19,≤ 100,Cc1cc(-c2cnc3sc(N)nc3c2)cc2c1OCCN(c1nc(CNCCF)nc(C)c1C(C)C)C2
20,≤ 100,Cc1ncc(C(C)C)c(N2CCOc3c(C)cc(-c4nnc(N)s4)cc3C2)n1
21,≤ 100,Cc1nc2cc(-c3cc(C)c4c(c3)CN(c3nc(N)nc(C)c3C(C)C)CCO4)cnc2[nH]1
22,≤ 100,Cc1cc(-c2cnc(Cl)c(NS(C)(=O)=O)c2)cc2c1OCCN(c1nc(C(N)=O)nc(C)c1C(C)C)C2
23,≤ 100,CCc1c(Cl)nc(CN(C)C)nc1N1CCOc2c(C)cc(-c3cnc4sc(N)nc4c3)cc2C1
24,≤ 100,Cc1cc(-c2cnc3sc(N)nc3c2)cc2c1OCCN(c1ncnc3c1CC(C)(C)C=C3)C2

row,IC50 [nM],Structure (SMILES)
1,100 to 500,CNc1ncnc(N2CCOc3c(C)cc(-c4cnc5sc(N)nc5c4)cc3C2)c1[N+](=O)[O-]
2,≤ 100,Cc1cc(-c2cnc3sc(N)nc3c2)cc2c1OCCN(c1nc(CN3CCCC3)ncc1C(C)C)C2
3,≤ 100,Cc1cc(-c2cnc3sc(N)nc3c2)cc2c1OCCN(c1nc(N)ncc1C(C)C)C2
4,≤ 100,C=Cc1c(C)nc(N)nc1N1CCOc2c(C)cc(-c3cnc4sc(N)nc4c3)cc2C1
5,≤ 100,Cc1cc(-c2nnc(N)s2)cc2c1OCCN(c1nc(CN(C)CC(F)F)nc(C)c1C(C)C)C2
6,≤ 100,CC#CCc1c(C)nc(C)nc1N1CCOc2c(C)cc(-c3cnc4sc(N)nc4c3)cc2C1
7,≤ 100,Cc1cc(-c2cnc3nc[nH]c3c2)cc2c1OCCN(c1nc(CN(C)CC(F)F)nc(C)c1C(C)C)C2
8,≤ 100,CC(=O)NCc1nc(C)c(C(C)C)c(N2CCOc3c(C)cc(-c4cnc5sc(N)nc5c4)cc3C2)n1
9,≤ 100,Cc1cc(-c2cnc(Cl)c(NS(C)(=O)=O)c2)cc2c1OCCN(c1nc(CNCC(F)F)nc(C)c1C(C)C)C2
10,100 to 500,Cc1cc(-c2cnc3sc(N)nc3c2)cc2c1OCCN(c1nccnc1C#N)C2
11,≤ 100,Cc1cc(-c2cnc3sc(N)nc3c2)cc2c1OCCN(c1nc(CNCC(F)F)nc(C)c1C(C)C)C2
12,≤ 100,Cc1cc(-c2cnc3sc(N)nc3c2)cc2c1OCCN(c1nc(CNC3CC3)nc(C)c1C(C)C)C2
13,≤ 100,CCNC(=O)c1nc(C)c(C(C)C)c(N2CCOc3c(C)cc(-c4cnc5sc(N)nc5c4)cc3C2)n1
14,≤ 100,Cc1cc(-c2cnc3sc(N)nc3c2)cc2c1OCCN(c1nc(C3CNC3)nc(C)c1C(C)C)C2
15,≤ 100,Cc1cc(-c2cnc3sc(N)nc3c2)cc2c1OCCN(c1nc(N)c(C#N)cc1C#N)C2
16,100 to 500,Cc1cnc(N2CCOc3c(C)cc(-c4cnc5sc(N)nc5c4)cc3C2)nc1N
17,≤ 100,CCCc1c(C)nc(N)nc1N1CCOc2c(C)cc(-c3cnc4sc(N)nc4c3)cc2C1
18,≤ 100,COCCOc1nc(C)c(C(C)C)c(N2CCOc3c(C)cc(-c4cnc5sc(N)nc5c4)cc3C2)n1
19,≤ 100,Cc1cc(-c2cnc3sc(N)nc3c2)cc2c1OCCN(c1nc(N3CCN(C)CC3)nc(C)c1C(C)C)C2
20,100 to 500,Cc1cc(-c2cncnc2)cc2c1OCCN(c1nc(N)nc(C)c1C(C)C)C2
21,≤ 100,COc1cc(-c2cnc3sc(N)nc3c2)cc2c1OCCN(c1nc(N)nc(C)c1C(C)C)C2
22,≤ 100,Cc1cc(-c2nnc(N)s2)cc2c1OCCN(c1nc(N)nc(C)c1C(C)C)C2
23,≤ 100,Cc1cc(-c2cnc3sc(N)nc3c2)cc2c1OCCN(c1nc(CC#N)nc(C)c1C(C)C)C2
24,≤ 100,Cc1cc(-c2cnc(N)nc2)cc2c1OCCN(c1nc(N)nc(C)c1C(C)C)C2

row,IC50 [nM],Structure (SMILES)
1,≤ 100,Cc1cc(-c2cnc3sc(N)nc3c2)cc2c1OCCN(c1nc(N)nc(C)c1CC1CC1)C2
2,≤ 100,Cc1cc(-c2cnc3sc(N)nc3c2)cc2c1OCCN(c1ncnc(C)c1C(C)C)C2
3,≤ 100,Cc1cc(-c2cccnc2)cc2c1OCCN(c1nc(N)nc(C)c1C(C)C)C2
4,≤ 100,Cc1cc(-c2cnc3sc(N)nc3c2)cc2c1OCCN(c1nc(CO)nc(C)c1C(C)C)C2
5,≤ 100,Cc1nc2ccc(-c3cc(C)c4c(c3)CN(c3ncnc5ccc(I)cc35)CCO4)cc2[nH]1
6,≤ 100,Cc1nc(C)c(C(C)C)c(N2CCOc3c(C)cc(-c4cnc5sc(N)nc5c4)cc3C2)n1
7,≤ 100,Cc1cc(-c2cnc3sc(N)nc3c2)cc2c1OCCN(c1nc(N)nc(C)c1C)C2
8,≤ 100,Cc1cc(-c2cnc3sc(N)nc3c2)cc2c1OCCN(c1nc(CN(C)CCF)nc(C)c1C(C)C)C2
9,≤ 100,Cc1cc(-c2nnc(N)s2)cc2c1OCCN(c1ncnc(C)c1C(C)C)C2
10,≤ 100,COCc1nc(C)c(C(C)C)c(N2CCOc3c(C)cc(-c4cnc5sc(N)nc5c4)cc3C2)n1
11,≤ 100,Cc1cc(-c2nnc(N)s2)cc2c1OCCN(c1nc(CNCC(F)F)nc(C)c1C(C)C)C2
12,≤ 100,Cc1cc(-c2cnc3sc(N)nc3c2)cc2c1OCCN(c1nc(N)ncc1C(F)(F)F)C2
13,≤ 100,Cc1cc(-c2cnc3sc(N)nc3c2)cc2c1OCCN(c1nc(CN3CCC(F)(F)C3)nc(C)c1C(C)C)C2
14,≤ 100,Cc1cc(-c2cnc3sc(N)nc3c2)cc2c1OCCN(c1nc(N)nc(Cl)c1C(C)C)C2
15,≤ 100,Cc1cc(-c2cnc3sc(N)nc3c2)cc2c1OCCN(c1nc(NCCN(C)C)nc(C)c1C(C)C)C2
16,100 to 500,Cc1cc(-c2cnc3sc(N)nc3c2)cc2c1OCCN(c1ccc(C#N)cn1)C2
17,≤ 100,Cc1cc(-c2cnc3sc(N)nc3c2)cc2c1OCCN(c1ncncc1C(C)C)C2
18,100 to 500,CSc1nc(Cl)c(C(C)(C)O)c(N2CCOc3c(C)cc(-c4cnc5sc(N)nc5c4)cc3C2)n1
19,100 to 500,CC(=O)Nc1ncc(-c2cc(C)c3c(c2)CN(c2nc(N)nc(C)c2C(C)C)CCO3)s1
20,≤ 100,Cc1cc(-c2ccncc2)cc2c1OCCN(c1nc(N)nc(C)c1C(C)C)C2
21,≤ 100,Cc1nc(C)c(C(C)C)c(N2CCOc3c(C)cc(-c4nnc(N)s4)cc3C2)n1
22,≤ 100,C=C(C)c1c(C)nc(N)nc1N1CCOc2c(C)cc(-c3cnc4sc(N)nc4c3)cc2C1
23,≤ 100,Cc1cc(-c2cccc(O)c2)cc2c1OCCN(c1nc(N)nc(C)c1C(C)C)C2
24,≤ 100,COCCc1c(C)ncnc1N1CCOc2c(C)cc(-c3cnc4sc(N)nc4c3)cc2C1

row,IC50 [nM],Structure (SMILES)
1,100 to 500,CCn1cc(-c2cc(C)c3c(c2)CN(c2nc(N)nc(C)c2C(C)C)CCO3)cn1
2,≤ 100,Cc1cc(-c2cnc(N)c(S(N)(=O)=O)c2)cc2c1OCCN(c1nc(N)nc(C)c1C(C)C)C2
3,≤ 100,Cc1cc(-c2nnc(N)s2)cc2c1OCCN(c1nc(N)nc(C)c1C)C2
4,≤ 100,COc1ncc(-c2cc(C)c3c(c2)CN(c2nc(N)nc(C)c2C(C)C)CCO3)cn1
5,≤ 100,Cc1cc(-c2cnc3sc(N)nc3c2)cc2c1OCCN(c1nc(CN(C)C)ncc1C(C)C)C2
6,≤ 100,Cc1cc(-c2cnc3sc(N)nc3c2)cc2c1OCCN(c1nc(CN(C)C(C)(C)C)nc(C)c1C(C)C)C2
7,≤ 100,COCCc1c(C)nc(C)nc1N1CCOc2c(C)cc(-c3cnc4sc(N)nc4c3)cc2C1
8,≤ 100,CC(=O)c1c(C)ncnc1N1CCOc2c(C)cc(-c3cnc4sc(N)nc4c3)cc2C1
9,≤ 100,Cc1cnccc1N1CCOc2c(C)cc(-c3cnc4sc(N)nc4c3)cc2C1
10,≤ 100,Cc1cc(-c2cnc3sc(N)nc3c2)cc2c1OCCN(c1nc(C(F)(F)F)nc(C)c1C(C)C)C2
11,≤ 100,C=Cc1c(CC)nc(N)nc1N1CCOc2c(C)cc(-c3cnc4sc(N)nc4c3)cc2C1
12,≤ 100,COCc1c(C)nc(C)nc1N1CCOc2c(C)cc(-c3cnc4sc(N)nc4c3)cc2C1
13,≤ 100,Cc1cc(-c2cnc3nc[nH]c3c2)cc2c1OCCN(c1nc(CNCC(F)F)nc(C)c1C(C)C)C2
14,≤ 100,Cc1cc(-c2ccn[nH]2)cc2c1OCCN(c1nc(N)nc(C)c1C(C)C)C2
15,≤ 100,CNCc1nc(C)c(C(C)C)c(N2CCOc3c(C)cc(-c4cnc5sc(N)nc5c4)cc3C2)n1
16,≤ 100,COCCc1nc(C)c(C(C)C)c(N2CCOc3c(C)cc(-c4cnc5sc(N)nc5c4)cc3C2)n1
17,≤ 100,COCCc1nc(C)c(C(C)C)c(N2CCOc3c(C)cc(-c4cnc(Cl)c(NS(C)(=O)=O)c4)cc3C2)n1
18,100 to 500,Cc1cc(-c2cnc3sc(N)nc3c2)cc2c1OCCN(c1ncc(C(F)(F)F)c(N)n1)C2
19,≤ 100,C#CCc1c(C)nc(C)nc1N1CCOc2c(C)cc(-c3cnc4sc(N)nc4c3)cc2C1
20,≤ 100,Cc1cc(-c2cnc3sc(N)nc3c2)cc2c1OCCN(c1nc(C3CCCN3)nc(C)c1C(C)C)C2 (stereo not drawn)
21,≤ 100,Cc1cc(-c2cnc3sc(N)nc3c2)cc2c1OCCN(c1nc(C(F)F)nc(C)c1C(C)C)C2
